Laboratory results taken from patent US7056734B1, “Differentiation of non-insulin producing cells into insulin producing cells by GLP-1 or exendin-4 and uses thereof” (The United States of America as represented by the …, priority 1998, dated 2006).

What was measured:
[1] = tested on: Hexokinase I, II and III mRNA; test: Slot-blot quantitation of hexokinase I, II and III mRNA in pancreata and islets; type: in vivo, rat; details: whole pancreata and islets
Experimental: Whole pancreata of rats that had been subjected to 48 hrs infusion with GLP-1 or saline were used to extract total RNA. After an overnight fast, animals were sacrificed, pancreata were removed and frozen in liquid nitrogen as quickly as possible. RNA was extracted by homogenization in guanidinium isothiocyanate, followed by ultracentrifugation on a 5.7 M cesium chloride cushion (Glisin et al., 1974; Chigwin et al., 1979). Poly-A RNA was then prepared from total RNA by affinity chromatography using oligo (dT) columns (Biolabs INC, Beverly, Mass.). RNA was quantified by spectrophotometric analysis at […]. Slot-blot analysis using poly-A RNA was used for quantitation of mRNA levels of glucokinase, which is the main glucose sensor of the beta cell (Matschinsky, 1990), the three hexokinases, GLUT2, the major glucose transporter of the beta cell (Mueckler, 1990), and insulin. Four micrograms of poly-A RNA were diluted in 50 μl TE buffer (Tris-HCL 10 mM, EDTA 1 mM, pH 7.4), 20 μl of 37% formaldehyde and 20 μl of 10× SSC. Samples were incubated at 60° C. for 15 min and then diluted with 1 ml of ice-cold 10× SSC (1×SCC=0.15 M NaCl+0.015 sodium citrate). […]
RNA isolation and quantitation of mRNAs in islets of Langerhans. […] Slot-Blot analysis was carried out to quantitate mRNA levels of the hexokinases, GLUT2, and insulin.

Wistar rats = test: Acute intravenous GLP-1 bolus, plasma insulin response in young and old rats; type: in vivo, rat; details: 0.2 nmol/kg iv bolus; for maximal insulin response: 2 min after completion of the bolus
Experimental: Protocols. To insure that old animals were capable of responding to GLP-1, we carried out an acute experiment with an intravenous bolus of GLP-1. Six old (22 months) and 6 young (3 months) Wistar rats were fasted overnight. Following anesthesia with 50 mg/kg pentobarbital, a catheter was placed in the femoral artery for blood sampling, and a bolus of GLP-1 (0.2 nmol/kg) was given into the saphenous vein over 30 sec. Blood (taken at 2, 4, 7, and 10 min) was collected for insulin determination.

AR42J cells = test: RT-PCR of insulin and glucagon mRNA in AR42J cells; type: cell-based, rat
Experimental: Reverse-transcription polymerase chain reaction (RT-PCR). Total RNA was isolated from treated AR42J cells by the methods of Chomczynski and Sacchi (1987). The total RNA samples were pretreated with DNAse in 20 mM Tris-HCL (pH 8.4), 2 mM MgCl2 and 50 mM KCl to remove any traces of contaminating genomic DNA. RT-PCR was undertaken in a volume of 50 μl of buffer containing 50 mM KCl, 10 mM Tris-HCl, 3.5 mM MgCl2, 200 μM each dNTPs, 0.4 μM each of sense and antisense primers to rat insulin I and II (insulin sense primer=5′[…]3′; insulin antisense primer=5′[…] 3′). Amplification was undertaken for 25 cycles at denaturing temperature 94° C. for 1 min, annealing temperature 60° C. for 45 sec and an extension temperature 72° C. for 1 min. mRNA from RIN 1046-38 cells were used as a positive control. In the case of glucagon RT-PCR, the denaturing and extension temperature was similar to insulin except the annealing temperature was 65° C. for 1 min (glucagon sense primer=5′ […]3′; antisense primer=5′ […]3′). The RT-PCR products were visualized by ethidium bromide staining on 2% agarose gels.

Structure (SMILES): CC[C@H](C)[C@H](NC(=O)[C@H](Cc1ccccc1)NC(=O)[C@H](CCC(=O)O)NC(=O)[C@H](CCCCN)NC(=O)[C@H](C)NC(=O)[C@H](C)NC(=O)[C@H](CCC(N)=O)NC(=O)CNC(=O)[C@H](CCC(=O)O)NC(=O)[C@H](CC(C)C)NC(=O)[C@H](Cc1ccc(O)cc1)NC(=O)[C@H](CO)NC(=O)[C@H](CO)NC(=O)[C@@H](NC(=O)[C@H](CC(=O)O)NC(=O)[C@H](CO)NC(=O)[C@@H](NC(=O)[C@H](Cc1ccccc1)NC(=O)[C@@H](NC(=O)CNC(=O)[C@H](CCC(=O)O)NC(=O)[C@H](C)NC(=O)[C@@H](N)Cc1c[nH]cn1)[C@@H](C)O)[C@@H](C)O)C(C)C)C(=O)N[C@@H](C)C(=O)N[C@@H](Cc1c[nH]c2ccccc12)C(=O)N[C@@H](CC(C)C)C(=O)N[C@H](C(=O)N[C@@H](CCCCN)C(=O)NCC(=O)N[C@@H](CCCNC(=N)N)C(N)=O)C(C)C [GLP-1]
- Hexokinase I, II and III mRNA levels [1]: did not appear to be altered
- maximal insulin response (Wistar rats; old (22 month) fasted rats): 347.7 ± 25.7 pmol/L
- maximal insulin response (Wistar rats; young (3 month) fasted rats): 373.3±43.7 pmol/1
- time at which insulin levels had returned to baseline (Wistar rats; young and old rats): 10 min
- rat insulin I and II mRNA by RT-PCR (AR42J cells; GLP-1-treated for 3 days, none in non-treated cells): demonstrated a 187 bp rat insulin I and II mRNA
- glucagon mRNA at 236 bp by RT-PCR (AR42J cells; GLP-1-treated, 48 h): detected
